Our source for the mutagenic call and call values is PubChem BioAssay AID1259408 (Genetic Toxicology Data Bank (GENE-TOX), 2018).

This series concerns GENE-TOX genotoxicity assays, various organisms and cells. The series can be described thus: GENE-TOX mutagenicity studies. To be noted: for call: Assay Type: In vivo carcinogenicity studies.
Setting [1] is: Species/Cell Type: Salmonella typhimurium (one or more of the five standard strains: TA98, TA100, TA1535, TA1537, and TA1538), Assay Type: Histidine reverse gene mutation, Ames assay, Assay Code: SAL+*, Activation: With metabolic activation, Evaluation Type: Evaluation A (Pre-1980).
Setting [2] is: Species/Cell Type: Salmonella typhimurium (one or more of the five standard strains: TA98, TA100, TA1535, TA1537, and TA1538), Assay Type: Histidine reverse gene mutation, Ames assay, Assay Code: SALT, Evaluation Type: Evaluation A (Pre-1980).

Active and inactive are the calls of the source. How the calls were made is not given here.

Regarding `Cc1ccc2c(ccc3c4ccccc4ccc23)c1`, under setting [1], the mutagenic call was “active; positive”.

As to `CNC(=O)CSP(=S)(OC)OC`, the mutagenic call (Species/Cell Type: Allium cepa, Assay Type: Chromosome aberrations, Assay Code: ALC+, Evaluation Type: Evaluation A (Pre-1980)) was “active; positive”; the mutagenic call (Species/Cell Type: Bacillus subtilis (H17 vs M45), Assay Type: Rec-assay, spot test, DNA effects (bacterial DNA repair), Assay Code: REWT, Evaluation Type: Evaluation A (Pre-1980)) was “no conclusion”; the mutagenic call (Species/Cell Type: Drosophila melanogaster, Assay Type: Sex-linked recessive lethal gene mutation, Assay Code: SRL-, Evaluation Type: Evaluation A (Pre-1980)) is “inactive; negative”; the mutagenic call (Species/Cell Type: Human, Assay Type: Sister-chromatid exchange (SCE) in vitro, Assay Code: SC1+D, Dose Response: With dose response, Evaluation Type: Evaluation B (Post-1980)) was “active; positive”; the mutagenic call (Species/Cell Type: Mammalian polychromatic erythrocytes, Assay Type: Micronucleus test, chromosome aberrations, Assay Code: MNT+U, Dose Response: Unconfirmed positive response, Evaluation Type: Evaluation B (Post-1980)) was “active; positive”; the mutagenic call (Species/Cell Type: Nonhuman, Assay Type: Sister-chromatid exchange (SCE) in vitro, Assay Code: SC2+, Evaluation Type: Evaluation B (Post-1980)) was “active; positive”. For the same molecule, the mutagenic call is “active; positive” (Species/Cell Type: Saccharomyces cerevisiae, Assay Type: Mitotic recombination or gene conversion, Assay Code: YEC+, Evaluation Type: Evaluation A (Pre-1980)) and “active; positive” (Species/Cell Type: Vicia faba, Assay Type: Chromosome aberrations, Assay Code: VIC+D, Dose Response: With dose response, Evaluation Type: Evaluation A (Pre-1980)). For the same molecule, the call (Species/Cell Type: Nonhuman, Assay Code: CCG-, Evaluation Type: Evaluation A (Pre-1980)) was “inactive; negative”. On to `O[C@@H]1C=Cc2c(cc3ccc4cccc5ccc2c3c45)[C@@H]1O`, for which the mutagenic call under setting [2] is “no conclusion”.

For `O=C(O)CNC(=O)c1ccccc1`, the mutagenic call is, setting by setting: (Species/Cell Type: Escherichia coli WP2, Assay Type: Tryptophan reverse gene mutation, Assay Code: WP2-*, Activation: With metabolic activation, Evaluation Type: Evaluation A (Pre-1980)) “inactive; negative”; (Species/Cell Type: Escherichia coli WP2 UVRA, Assay Type: Tryptophan reverse gene mutation, Assay Code: WPU-*, Activation: With metabolic activation, Evaluation Type: Evaluation A (Pre-1980)) “inactive; negative”.

As for `CC1CN(N=O)C(C)CN1N=O` (centres undefined), the mutagenic call under setting [1] was “active; positive”. Regarding `c1ccc(N=Nc2ccccc2)cc1`, the call (Species/Cell Type: Nonhuman, Assay Code: CCG+, Evaluation Type: Evaluation A (Pre-1980)) was “active; positive”. For the same molecule, the mutagenic call is, setting by setting: (Species/Cell Type: Nonhuman, Assay Type: Sister-chromatid exchange (SCE) in vitro, Assay Code: SC2+D, Dose Response: With dose response, Evaluation Type: Evaluation B (Post-1980)) “active; positive”; under setting [1], “active; positive”.

On to `CCCCOCC1CO1` (centres undefined), for which, for the setting “Species/Cell Type: Mammalian polychromatic erythrocytes, Assay Type: Micronucleus test, chromosome aberrations, Assay Code: MNT+, Evaluation Type: Evaluation B (Post-1980)”, the mutagenic call is “active; positive”. Regarding `Clc1ccc2ccccc2n1`, the mutagenic call under setting [2] is listed as “no conclusion”. Same read-out and setting: for `Nc1ccc2ccccc2c1N=Nc1ccccc1` the value was “no conclusion”. With `Cn1c([N+](=O)[O-])cnc1/C=N/N1CC(CN2CCOCC2)OC1=O` (centres undefined), the mutagenic call is “no conclusion” (Species/Cell Type: Drosophila melanogaster, Assay Type: Sex-linked recessive lethal gene mutation, Assay Code: SRLT, Evaluation Type: Evaluation A (Pre-1980)); “active; positive” (Species/Cell Type: Mouse, Sex: Female, Assay Type: Spot test, gene mutation, Assay Code: MST+, Evaluation Type: Evaluation A (Pre-1980)); “inactive; negative” (Species/Cell Type: Saccharomyces cerevisiae, Assay Type: Mitotic recombination or gene conversion, Assay Code: YEC-, Evaluation Type: Evaluation A (Pre-1980)). Regarding `OC[P+](CO)(CO)CO`, the mutagenic call (Species/Cell Type: Mammalian polychromatic erythrocytes, Assay Type: Micronucleus test, chromosome aberrations, Assay Code: MNTT, Evaluation Type: Evaluation B (Post-1980)) was “no conclusion”. On to `CCOc1ccccc1C(N)=O`, for which the mutagenic call (Species/Cell Type: Human, Assay Type: Sister-chromatid exchange (SCE) in vitro, Assay Code: SC1+, Evaluation Type: Evaluation B (Post-1980)) was “active; positive”. `CC(C)(C)N1CC1`: the mutagenic call (Species/Cell Type: Schizosaccharomyces pombe, Assay Type: Reverse gene mutation, Assay Code: YEZ+, Evaluation Type: Evaluation A (Pre-1980)) was “active; positive”. As to `CC(=O)[O-].CC(=O)[O-].[Hg+2]`, the mutagenic call was “inactive; negative” (Species/Cell Type: Mammalian oocytes or early embryo, Assay Type: Chromosome aberrations in vivo, Assay Code: CYO-, Evaluation Type: Evaluation A (Pre-1980)) and “inactive; negative” (Species/Cell Type: Nonhuman, Assay Type: Sister-chromatid exchange (SCE) in vitro, Assay Code: SC2-, Evaluation Type: Evaluation B (Post-1980)). Take `CC[C@]1(O)CC[C@H]2[C@@H]3CCC4=CC(=O)CC[C@@H]4[C@H]3CC[C@@]21C`: the mutagenic call (Species/Cell Type: Human, Sex: Male, Assay Type: Sperm morphology, Assay Code: SPH+, Evaluation Type: Evaluation A (Pre-1980)) was “active; positive”.
